The values that follow come from US20190282616A1, “MACROPHAGES REDIRECT PHAGOCYTOSIS BY NON-PROFESSIONAL PHAGOCYTES AND INFLUENCE INFLAMMATION” (University of Virginia Patent Foundation, priority 2016, published 2019).

The test system of test [1] is BEAS-2B cells. The experiment in a line: In vitro engulfment assay: apoptotic cell uptake by BEAS-2B cells. The test is classed as cell-based. The note with it: human IGF-I. The protocol: (§1) LR73, SVEC-40, BEAS-2B, and 16HBE14o-cells were seeded in a 24 well plate. Thymocytes were isolated from 4-6 week old mice and induced to undergo apoptosis with dexamethasone. Thymocytes or prepared microvesicles were then stained with either CypHer5E (GE Healthcare, PA15401) or TAMRA (Invitrogen, C-1171). LR73 and SVEC-40 cells were incubated with apoptotic thymocytes at a 1:10 phagocyte to target ratio, BEAS-2B at a 1:5 phagocyte to target ratio, and 16HBE14o—at a 1:20 phagocyte to target ratio for 2 hours. Mouse IGF-I (Sigma-Aldrich), human IGF-I (Sigma-Aldrich), human IGF-II (Sigma-Aldrich) were added to the phagocytes at the same time as addition of apoptotic targets. For IGFBP3 studies, IGFBP3 (Sigma-Aldrich) was added to media or supernatant from J774 cells for one hour to allow IGFBP3 to bind to any available IGF-I, then the mix is added to phagocytes along with apoptotic targets. […] Targets were then washed off three times with PBS, and the cells were dissociated from the plate with trypsin and the engulfment assessed by flow cytometry.

The subject of test [2] is 16HBE14o- human airway epithelial cells. The experiment in a line: In vitro engulfment assay: apoptotic thymocyte uptake by 16HBE14o- cells. To be noted: IGF-1 treatment. It counts as cell-based. The protocol: as §1
Test [3] has as its system BEAS-2B cells. The experiment in a line: Uptake of alveolar macrophage derived microvesicles by BEAS-2B cells. To be noted: IGF-1 100 ng/mL. The test is classed as cell-based, human. The protocol:
MH-S, mouse alveolar macrophages, or primary mouse alveolar macrophages were seeded. After adherence, the media was replaced with 0.22 μm filtered media to remove any contaminating microvesicles. After an overnight incubation, the supernatant was harvested and spun at 5000×g to remove cell debris and apoptotic bodies. The pellet was discarded and the resulting supernatant was filtered through 0.8 μm filter and spun again at 17,000×g. The pelleted microvesicles were then washed with HBSS and then spun again at 17,000×g. For engulfment assays, microvesicles were stained with TAMRA for 20 minutes and then added to BEAS-2B cells for 90 minutes. For flow cytometry, purified particles were stained with CD11c, Siglec F, and Annexin V (BD Biosciences, Cat. No. 550475) and processed on Imagestream™ imaging flow cytometer (Amnis). Microvesicle size distribution was characterized using qNano (IZON Science) with a NP400 membrane and at least 500 particles were counted. Microvesicles were prepared for cryo-electron microscopy using standard methods and imaged on an FEI TF20.

Test [4] concerns IC-21 cells. The experiment in a line: Apoptotic thymocyte engulfment by IC-21 cells. The test is classed as cell-based. The note with it: indicated concentrations of mouse IGF-1 or human insulin.
Test [5] relates to resident peritoneal macrophages. The experiment in a line: Apoptotic cell engulfment by resident peritoneal macrophages. The test is classed as cell-based, mouse. To be noted: even with supra-physiological concentrations of IGF-1. The procedure: To obtain bone-marrow derived macrophages, femurs were removed from 8 week old mice and flushed with 5 mL of sterile PBS containing 5% FBS. The cell suspension was centrifuged, treated with red blood cell lysis buffer, washed, and then plated onto sterile petri dishes in DMEM containing 10% L929 media, 10% FBS and 1% penicillin/streptomycin/glutamine (PSQ). Media was replenished every 2 to 3 days and differentiated cells were used at day 6 post-harvest. Resident peritoneal macrophages were obtained by flushing the peritoneal cavity of mice with 10 mL of cold PBS containing 5% FBS. Collected cells were spun down, resuspended in X-VIVO 10 (Lonza) and plated at a concentration of 3×10^5 cells per well in a 24 well plate for IGF-1 secretion assays, and 5×10^5 per well in a 24 well plate for engulfment assays. Floating cells were washed the next day and remaining peritoneal macrophages were used 2 days after isolation. Alveolar macrophages were isolated by flushing the lungs with 1 mL of cold PBS instilled intratracheally (five flushes). Collected cells were centrifuged, resuspended in F12K media containing 10% FBS and 1% PSQ, and seeded at 1×10^5 cells per well in a 48-well plate. All floating cells were washed away the next day and remaining cells were used in assays 2 days after isolation.

For test [6], the system named is LR73 cells. The experiment in a line: In vitro engulfment assay: apoptotic thymocyte uptake by LR73 cells. The test is classed as cell-based, hamster. The note with it: LR73 cells pretreated with IGF-I, washed.
In test [7] the test system is LR73 cells. The note with it: liposomes of 150-200 nm; IGF-1 50 ng/mL, EGF or VEGF 100 ng/mL each. The procedure: LR73, SVEC-40, BEAS-2B, and 16HBE14o-cells were seeded in a 24 well plate. Thymocytes were isolated from 4-6 week old mice and induced to undergo apoptosis with dexamethasone. Thymocytes or prepared microvesicles were then stained with either CypHer5E (GE Healthcare, PA15401) or TAMRA (Invitrogen, C-1171). LR73 and SVEC-40 cells were incubated with apoptotic thymocytes at a 1:10 phagocyte to target ratio, BEAS-2B at a 1:5 phagocyte to target ratio, and 16HBE14o—at a 1:20 phagocyte to target ratio for 2 hours. Mouse IGF-I (Sigma-Aldrich), human IGF-I (Sigma-Aldrich), human IGF-II (Sigma-Aldrich) were added to the phagocytes at the same time as addition of apoptotic targets. For IGFBP3 studies, IGFBP3 (Sigma-Aldrich) was added to media or supernatant from J774 cells for one hour to allow IGFBP3 to bind to any available IGF-I, then the mix is added to phagocytes along with apoptotic targets. For all pharmacological studies, phagocytes were pre-incubated with the compounds listed below for one hour prior to addition of apoptotic targets: cytochalasin D (Sigma-Aldrich, C8273, 1 μM), Latrunculin A (Tocris, 3973, 150 nM), CK-666 (Tocris, 3950, 25 μM-100 μM), OSI-906 (Selleckchem, S1091, 5 nM-40 nM), NVP-AEW541 (Selleckchem, S1034, 25 nM-100 nM), Rapamycin (Sigma-Aldrich, R0395, […]), MK-2206 2HCl (Selleckchem, S1078, 10 nM-1 U0126-EtOH (Selleckchem, S1102, […]), Wortmannin (Sigma-Aldrich, W1628, 50 nM-200 nM), Y27632 (Calbiochem, 688000, 3.75 μM-15 μM), or GSK269962 (Tocris, 4009, 80 nM-2 μM). […] Targets were then washed off three times with PBS, and the cells were dissociated from the plate with trypsin and the engulfment assessed by flow cytometry.
Liposomes were prepared by dissolving the lipids (phosphatidylserine, dioleoyl phosphatidylcholine, cholesterol and the lipid DiD dye) in chloroform, evaporating chloroform under flow of argon gas in a glass vial, then subjecting the lipid layer to overnight lyophilization to remove traces of organic solvent. Then normal saline was added for hydration, and intense vortexing was preformed to prepare multilamellar vesicles (MIN). Liposomes were repeatedly filtered through a 0.2 um Nuclepore polycarbonate filter to prepare smaller particles. Particle size was verified by dynamic light scattering using Nicomp 370.

For insulin-like growth factor I [IGF-1], the “apoptotic cell uptake by BEAS-2B cells” value in test [1] is reported as “engulfment dampening effect of IGF-1 was also seen”. Also, in test [2], the “apoptotic thymocyte uptake by 16HBE14o- cells” value is reported as “engulfment dampening effect of IGF-1 was also seen”. For the same substance, the “uptake of microvesicles by BEAS-2B airway epithelial cells” value in test [3] is “enhanced by IGF-1”. Moreover, the “corpse uptake by IC-21 cells” value in test [4] is reported as “did not affect corpse uptake”. Also, the “corpse uptake by resident peritoneal macrophages” value in test [5] was “did not affect corpse uptake”. Besides, the “engulfment after washing phagocytes pre-treated with IGF-1 (reversibility)” value in test [6] is on record as “near complete restoration of engulfment”. In test [7], the “uptake of PtdSer containing liposomes by LR73 cells” value is “enhanced the uptake of PtdSer containing liposomes”.
